# Experimental data: ChEMBL document CHEMBL5113453, “Design, synthesis, and biological evaluation of a new series of pyrazole derivatives: Discovery of potent and selective JNK3 kinase inhibitors” (Bioorg Med Chem, 2022)
# What was measured:
# CCRF-CEM = experiment: Antiproliferative activity against human CCRF-CEM cells measured after 48 hrs by SRB assay; format: functional, cell-based
# HL-60(TB) = experiment: Antiproliferative activity against human HL-60(TB) cells measured after 48 hrs by SRB assay; format: functional, cell-based
# MOLT-4 = experiment: Antiproliferative activity against human MOLT-4 cells measured after 48 hrs by SRB assay; format: functional, cell-based
# RPMI-8226 = experiment: Antiproliferative activity against human RPMI-8226 cells measured after 48 hrs by SRB assay; format: functional, cell-based
# SR = experiment: Antiproliferative activity against human SR cells measured after 48 hrs by SRB assay; format: functional, cell-based
# A549 = experiment: Antiproliferative activity against human A549 cells measured after 48 hrs by SRB assay; format: functional, cell-based
# NCI-H23 = experiment: Antiproliferative activity against human NCI-H23 cells measured after 48 hrs by SRB assay; format: functional, cell-based
# NCI-H522 = experiment: Antiproliferative activity against human NCI-H522 cells measured after 48 hrs by SRB assay; format: functional, cell-based
# COLO 205 = experiment: Antiproliferative activity against human COLO 205 cells measured after 48 hrs by SRB assay; format: functional, cell-based
# HCC 2998 = experiment: Antiproliferative activity against human HCC 2998 cells measured after 48 hrs by SRB assay; format: functional, cell-based
# HCT-116 = experiment: Antiproliferative activity against human HCT-116 cells measured after 48 hrs by SRB assay; format: functional, cell-based
# HCT-15 = experiment: Antiproliferative activity against human HCT-15 cells measured after 48 hrs by SRB assay; format: functional, cell-based
# HT-29 = experiment: Antiproliferative activity against human HT-29 cells measured after 48 hrs by SRB assay; format: functional, cell-based
# SW-620 = experiment: Antiproliferative activity against human SW-620 cells measured after 48 hrs by SRB assay; format: functional, cell-based
# SNB-19 = experiment: Antiproliferative activity against human SNB-19 cells measured after 48 hrs by SRB assay; format: functional, cell-based
# Malme-3M = experiment: Antiproliferative activity against human Malme-3M cells measured after 48 hrs by SRB assay; format: functional, cell-based
# M14 = experiment: Antiproliferative activity against human M14 cells measured after 48 hrs by SRB assay; format: functional, cell-based
# MDA-MB-435 = experiment: Antiproliferative activity against human MDA-MB-435 cells measured after 48 hrs by SRB assay; format: functional, cell-based
# SK-MEL-2 = experiment: Antiproliferative activity against human SK-MEL-2 cells measured after 48 hrs by SRB assay; format: functional, cell-based
# SK-MEL-5 = experiment: Antiproliferative activity against human SK-MEL-5 cells measured after 48 hrs by SRB assay; format: functional, cell-based
# OVCAR-3 = experiment: Antiproliferative activity against human OVCAR-3 cells measured after 48 hrs by SRB assay; format: functional, cell-based
# OVCAR-4 = experiment: Antiproliferative activity against human OVCAR-4 cells measured after 48 hrs by SRB assay; format: functional, cell-based
# OVCAR-5 = experiment: Antiproliferative activity against human OVCAR-5 cells measured after 48 hrs by SRB assay; format: functional, cell-based
# OVCAR-8 = experiment: Antiproliferative activity against human OVCAR-8 cells measured after 48 hrs by SRB assay; format: functional, cell-based
# SK-OV-3 = experiment: Antiproliferative activity against human SK-OV-3 cells measured after 48 hrs by SRB assay; format: functional, cell-based
# ACHN = experiment: Antiproliferative activity against human ACHN cells measured after 48 hrs by SRB assay; format: functional, cell-based
# CAKI-1 = experiment: Antiproliferative activity against human CAKI-1 cells measured after 48 hrs by SRB assay; format: functional, cell-based
# RXF 393 = experiment: Antiproliferative activity against human RXF 393 cells measured after 48 hrs by SRB assay; format: functional, cell-based
# SN12C = experiment: Antiproliferative activity against human SN12C cells measured after 48 hrs by SRB assay; format: functional, cell-based
# TK-10 = experiment: Antiproliferative activity against human TK-10 cells measured after 48 hrs by SRB assay; format: functional, cell-based
# UO-31 = experiment: Antiproliferative activity against human UO-31 cells measured after 48 hrs by SRB assay; format: functional, cell-based
# PC-3 = experiment: Antiproliferative activity against human PC-3 cells measured after 48 hrs by SRB assay; format: functional, cell-based
# DU-145 = experiment: Antiproliferative activity against human DU-145 cells measured after 48 hrs by SRB assay; format: functional, cell-based
# MCF7 = experiment: Antiproliferative activity against human MCF7 cells measured after 48 hrs by SRB assay; format: functional, cell-based
# MDA-MB-231 = experiment: Antiproliferative activity against human MDA-MB-231 cells measured after 48 hrs by SRB assay; format: functional, cell-based
# Hs-578T = experiment: Antiproliferative activity against human Hs-578T cells measured after 48 hrs by SRB assay; format: functional, cell-based
# MDA-MB-468 = experiment: Antiproliferative activity against human MDA-MB-468 cells measured after 48 hrs by SRB assay; format: functional, cell-based
# WI-38 = experiment: Antiproliferative activity against human WI-38 cells measured by MTT assay; format: functional, cell-based
# [1] = target: Mitogen-activated protein kinase 10 (Homo sapiens, UniProt P53779); experiment: Inhibition of JNK3 (unknown origin)
# Chain of Mitogen-activated protein kinase 10 (P53779 whole entry): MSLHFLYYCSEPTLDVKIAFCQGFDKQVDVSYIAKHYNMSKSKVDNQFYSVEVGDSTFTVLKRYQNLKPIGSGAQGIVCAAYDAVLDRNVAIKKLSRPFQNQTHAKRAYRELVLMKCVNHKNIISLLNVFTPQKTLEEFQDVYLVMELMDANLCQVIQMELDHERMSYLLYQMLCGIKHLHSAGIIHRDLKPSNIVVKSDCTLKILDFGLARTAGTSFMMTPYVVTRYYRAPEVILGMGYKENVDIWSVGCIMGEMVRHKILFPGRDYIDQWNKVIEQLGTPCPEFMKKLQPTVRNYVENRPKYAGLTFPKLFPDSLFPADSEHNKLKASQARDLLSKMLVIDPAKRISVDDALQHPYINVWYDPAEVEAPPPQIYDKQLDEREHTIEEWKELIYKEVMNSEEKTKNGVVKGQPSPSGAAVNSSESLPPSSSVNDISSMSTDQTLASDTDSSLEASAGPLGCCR
smiles,measurement,setting,value
O=C(NCCCNc1cc(-c2cn(-c3ccccc3)nc2-c2cccc(O)c2)ccn1)Nc1ccc(F)cc1,IC50,CCRF-CEM; 48 h,1.42 µM
same,TGI,CCRF-CEM; time 48 hrs,> 25 µM
same,IC50,"HL-60(TB); HL-60, 48 h",2.15 µM
same,TGI,"HL-60(TB); HL-60, time 48 hrs",14.2 µM
same,IC50,"MOLT-4; MOLT-4, 48 h",1.25 µM
same,TGI,"MOLT-4; MOLT-4, time 48 hrs",15.6 µM
same,IC50,"RPMI-8226; RPMI-8226, 48 h",0.87 µM
same,TGI,"RPMI-8226; RPMI-8226, time 48 hrs",5.47 µM
same,IC50,SR; 48 h,1.51 µM
same,TGI,SR; time 48 hrs,13.8 µM
same,IC50,"A549; A549, 48 h",3.12 µM
same,TGI,"A549; A549, time 48 hrs",> 21.7 µM
same,IC50,"NCI-H23; NCI-H23, 48 h",3.11 µM
same,TGI,"NCI-H23; NCI-H23, time 48 hrs",7.65 µM
same,IC50,"NCI-H522; NCI-H522, 48 h",4.03 µM
same,TGI,"NCI-H522; NCI-H522, time 48 hrs",9.49 µM
same,IC50,"COLO 205; COLO 205, 48 h",2.34 µM
same,TGI,"COLO 205; COLO 205, time 48 hrs",6.28 µM
same,IC50,"HCC 2998; HCC 2998, 48 h",1.09 µM
same,TGI,"HCC 2998; HCC 2998, time 48 hrs",4.05 µM
same,IC50,"HCT-116; HCT-116, 48 h",1.62 µM
same,TGI,"HCT-116; HCT-116, time 48 hrs",5.82 µM
same,IC50,"HCT-15; HCT-15, 48 h",0.94 µM
same,TGI,"HCT-15; HCT-15, time 48 hrs",4.04 µM
same,IC50,"HT-29; HT-29, 48 h",1.09 µM
same,TGI,"HT-29; HT-29, time 48 hrs",4.99 µM
same,IC50,"SW-620; SW-620, 48 h",3.04 µM
same,TGI,"SW-620; SW-620, time 48 hrs",6.73 µM
same,IC50,"SNB-19; SNB-19, 48 h",3.29 µM
same,TGI,"SNB-19; SNB-19, time 48 hrs",9.75 µM
same,IC50,Malme-3M; 48 h,0.83 µM
same,TGI,Malme-3M; time 48 hrs,3.42 µM
same,IC50,"M14; M14, 48 h",1.57 µM
same,TGI,"M14; M14, time 48 hrs",5.85 µM
same,IC50,"MDA-MB-435; MDA-MB-435, 48 h",1.66 µM
same,TGI,"MDA-MB-435; MDA-MB-435, time 48 hrs",5.05 µM
same,IC50,"SK-MEL-2; SK-MEL-2, 48 h",4 µM
same,TGI,"SK-MEL-2; SK-MEL-2, time 48 hrs",10.1 µM
same,IC50,"SK-MEL-5; SK-MEL-5, 48 h",1.64 µM
same,TGI,"SK-MEL-5; SK-MEL-5, time 48 hrs",4.83 µM
same,IC50,"OVCAR-3; OVCAR-3, 48 h",2.16 µM
same,TGI,"OVCAR-3; OVCAR-3, time 48 hrs",8.69 µM
same,IC50,"OVCAR-4; OVCAR-4, 48 h",1.46 µM
same,TGI,"OVCAR-4; OVCAR-4, time 48 hrs",8.21 µM
same,IC50,"OVCAR-5; OVCAR-5, 48 h",3.37 µM
same,TGI,"OVCAR-5; OVCAR-5, time 48 hrs",9.12 µM
same,IC50,"OVCAR-8; OVCAR-8, 48 h",2.13 µM
same,TGI,"OVCAR-8; OVCAR-8, time 48 hrs",9.26 µM
same,IC50,"SK-OV-3; SK-OV-3, 48 h",3.12 µM
same,TGI,"SK-OV-3; SK-OV-3, time 48 hrs",10.8 µM
same,IC50,ACHN; 48 h,3.16 µM
same,TGI,ACHN; time 48 hrs,14.2 µM
same,IC50,"CAKI-1; CAKI-1, 48 h",2.04 µM
same,TGI,"CAKI-1; CAKI-1, time 48 hrs",10.7 µM
same,IC50,"RXF 393; RXF 393, 48 h",0.97 µM
same,TGI,"RXF 393; RXF 393, time 48 hrs",4.85 µM
same,IC50,SN12C; 48 h,2.79 µM
same,TGI,SN12C; time 48 hrs,8.37 µM
same,IC50,"TK-10; TK-10, 48 h",6.78 µM
same,TGI,"TK-10; TK-10, time 48 hrs",20.3 µM
same,IC50,"UO-31; UO-31, 48 h",1.58 µM
same,TGI,"UO-31; UO-31, time 48 hrs",9.7 µM
same,IC50,"PC-3; PC-3, 48 h",1.33 µM
same,TGI,"PC-3; PC-3, time 48 hrs",8.92 µM
same,IC50,"DU-145; DU-145, 48 h",4.22 µM
same,TGI,"DU-145; DU-145, time 48 hrs",19.3 µM
same,IC50,"MCF7; MCF7, 48 h",2.32 µM
same,TGI,"MCF7; MCF7, time 48 hrs",6.04 µM
same,IC50,"MDA-MB-231; MDA-MB-231, 48 h",2.18 µM
same,TGI,"MDA-MB-231; MDA-MB-231, time 48 hrs",7.78 µM
same,IC50,Hs-578T; 48 h,0.98 µM
same,TGI,Hs-578T; time 48 hrs,5.31 µM
same,IC50,"MDA-MB-468; MDA-MB-468, 48 h",1.18 µM
same,TGI,"MDA-MB-468; MDA-MB-468, time 48 hrs",4.66 µM
same,IC50,WI-38,16.8 µM
same,IC50,[1],0.0974 µM
